The values that follow are results of earlier work, collected in US20210069377A1, “TISSUE SCAFFOLD” (priority 2018, published 2021).

For the data set the following is noted: at 20° C. and 1 atm.

Regarding `O=C(CO)[C@@H](O)[C@H](O)[C@H](O)CO` [Fructose], the solubility result was “about 375 g/100 g water”.
